In patent publication US9169254B2, “Spiroimidazolone derivative” (Chugai Seiyaku Kabushiki Kaisha, priority 2009, dated 2015):

The compounds below were run against T1, human PTH1 receptor (Homo sapiens, UniProt Q03431) (assay: In vitro cAMP signal activity in HKRK-B7 cells (LLC-PK1 cells overexpressing the human PTH1 receptor)). Conditions: 0.1 µM.
T1 sequence (Q03431 27-593): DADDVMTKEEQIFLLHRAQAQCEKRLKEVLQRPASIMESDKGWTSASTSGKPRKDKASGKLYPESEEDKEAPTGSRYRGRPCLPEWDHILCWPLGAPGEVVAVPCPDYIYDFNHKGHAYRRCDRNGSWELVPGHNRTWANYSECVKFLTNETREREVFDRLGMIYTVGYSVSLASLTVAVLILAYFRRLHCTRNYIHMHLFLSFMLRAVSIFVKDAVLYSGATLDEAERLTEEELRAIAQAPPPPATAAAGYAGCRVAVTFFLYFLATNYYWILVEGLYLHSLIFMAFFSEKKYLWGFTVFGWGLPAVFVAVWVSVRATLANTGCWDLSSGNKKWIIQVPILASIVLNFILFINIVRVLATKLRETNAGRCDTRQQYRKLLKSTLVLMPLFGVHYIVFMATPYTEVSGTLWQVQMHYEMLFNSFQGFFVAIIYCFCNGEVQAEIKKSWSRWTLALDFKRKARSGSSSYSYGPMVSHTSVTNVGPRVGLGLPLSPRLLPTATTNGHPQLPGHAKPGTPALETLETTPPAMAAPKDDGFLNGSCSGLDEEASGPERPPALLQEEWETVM
Type: cell-based

Compound | cAMP production activity (%)
Cc1cc(N(C)C(N)=O)cc(C)c1/C=C/[S@TB3](=O)(=O)N1CCC2(CC1)N=C(c1cccc(C(F)(F)C(F)(F)C(F)(F)C(F)(F)F)c1)NC2=O [Compound 1112, 1-(3,5-dimethyl-4-{(E)-2-[2-(3-nonafluorobutyl-phenyl)-4-oxo-1,3,8-triaza-spiro[4.5]dec-1-ene-8-sulfonyl]-vinyl}-phenyl)-1-methyl-urea] | 76

Same assay, conditions: HKRK-B7 cells; compound at 1×10^−3 M; […]; 0.1 µM

Compound | cAMP production activity (%)
Cc1cc(N(C)c2nccs2)cc(C)c1CCS(=O)(=O)N1CCC2(CC1)N=C([C@H]1CC[C@H](C)CC1)NC2=O [Compound 475, 8-{2-[2,6-Dimethyl-4-(methyl-thiazol-2-yl-amino)-phenyl]-ethanesulfonyl}-2-(4-methyl-cyclohexyl)-1,3,8-triaza-spiro[4.5]dec-1-en-4-one] | 84

Same assay, conditions: HKRK-B7 cells; compound at 1×10^−3 M; cAMP produced as percentage of that produced by hPTH(1-34) at 100 nM

Compound | cAMP production activity (%)
CC(=O)N(C)c1cc(C)c(CCS(=O)(=O)N2CCC3(CC2)N=C(CCCCCCC(F)(F)F)NC3=O)c(C)c1 [Compound 1044, N-(3,5-Dimethyl-4-{2-[4-oxo-2-(7,7,7-trifluoro-heptyl)-1,3,8-triaza-spiro[4.5]dec-1-ene-8-sulfonyl]-ethyl}-phenyl)-N-methyl-acetamide] | 86
Cc1cc(N(C)C(N)=O)cc(C)c1CCS(=O)(=O)N1CCC2(CC1)N=C(CCCCCCCCC(F)(F)F)NC2=O [Compound 1046, 1-(3,5-dimethyl-4-{2-[4-oxo-2-(9,9,9-trifluoro-nonyl)-1,3,8-triaza-spiro[4.5]dec-1-ene-8-sulfonyl]-ethyl}-phenyl)-1-methyl-urea] | 101
Cc1cc(C(=O)N2CCC(C)(O)CC2)cc(C)c1/C=C/S(=O)(=O)N1CCC2(CC1)N=C(c1ccc(OCC(F)(F)C(F)(F)F)c(C(F)(F)F)c1)NC2=O [Compound 1203, 8-{(E)-2-[4-(4-hydroxy-4-methyl-piperidine-1-carbonyl)-2,6-dimethyl-phenyl]-ethenesulfonyl}-2-[4-(2,2,3,3,3-pentafluoro-propoxy)-3-trifluoromethyl-phenyl]-1,3,8-triaza-spiro[4.5]dec-1-en-4-one] | 90
Cc1cc(OC[C@H](O)CO)cc(C)c1/C=C/S(=O)(=O)N1CCC2(CC1)N=C(c1cccc(OCCCC(F)(F)C(F)(F)F)c1)NC2=O [Compound 1103, 8-{(E)-2-[4-((R)-2,3-Dihydroxy-propoxy)-2,6-dimethyl-phenyl]-ethenesulfonyl}-2-[3-(4,4,5,5,5-pentafluoro-pentyloxy)-phenyl]-1,3,8-triaza-spiro[4.5]dec-1-en-4-one] | 5.4
Cc1cc(N(C)C(N)=O)cc(C)c1/C=C/[S@TB3](=O)(=O)N1CCC2(CC1)N=C(c1ccc(Cl)c(C(F)(F)F)c1)NC2=O [Compound 1113, 1-(4-{(E)-2-[2-(4-chloro-3-trifluoromethyl-phenyl)-4-oxo-1,3,8-triaza-spiro[4.5]dec-1-ene-8-sulfonyl]-vinyl}-3,5-dimethyl-phenyl)-1-methyl-urea] | 99
COCCN(C(C)=O)c1ccc(/C=C/S(=O)(=O)N2CCC3(CC2)N=C(C2CCC(CCC(F)(F)F)CC2)NC3=O)c(C)c1 (stereo not shown) [Compound 542, N-(2-methoxy-ethyl)-N-[3-methyl-4-((E)-2-{4-oxo-2-[4-(3,3,3-trifluoro-propyl)-cyclohexyl]-1,3,8-triaza-spiro[4.5]dec-1-ene-8-sulfonyl}-vinyl)-phenyl]-acetamide] | 66
O=C1NC(C2CCCCC2)=NC12CCN(S(=O)(=O)/C=C/c1ccccc1C(F)(F)F)CC2 [Compound 179, 2-cyclohexyl-8-[(E)-2-(2-trifluoromethyl-phenyl)-ethenesulfonyl]-1,3,8-triaza-spiro[4.5]dec-1-en-4-one] | 49
Cc1cc2ccc1CCS(=O)(=O)N1CCC3(CC1)N=C(NC3=O)c1cc(cc(C(F)(F)F)c1)OCC/C=C/COCCN(C)C2=O [Compound 1420] | 20
Cc1cc(C(=O)N2CCC(C)(O)CC2)cc(C)c1/C=C/S(=O)(=O)N1CCC2(CC1)N=C(c1cccc(COc3cccc(C(F)(F)F)c3)c1)NC2=O [Compound 1205, 8-{(E)-2-[4-(4-hydroxy-4-methyl-piperidine-1-carbonyl)-2,6-dimethyl-phenyl]-ethenesulfonyl}-2-[3-(3-trifluoromethyl-phenoxymethyl)-phenyl]-1,3,8-triaza-spiro[4.5]dec-1-en-4-one] | 83

Now from value to compound:

cAMP production activity (%) | Compound
66 | Cc1cc(C(=O)N2CCC(O)CC2)ccc1/C=C/S(=O)(=O)N1CCC2(CC1)N=C(c1cccc(OC(F)(F)F)c1)NC2=O [Compound 230, 8-{(E)-2-[4-(4-hydroxy-piperidine-1-carbonyl)-2-methyl-phenyl]-ethenesulfonyl}-2-(3-trifluoromethoxy-phenyl)-1,3,8-triaza-spiro[4.5]dec-1-en-4-one]
61 | COC(=O)Cn1ccc2c(/C=C/S(=O)(=O)N3CCC4(CC3)N=C(C3CCCCC3)NC4=O)cccc21 [Compound 476, {4-[(E)-2-(2-cyclohexyl-4-oxo-1,3,8-triaza-spiro[4.5]dec-1-ene-8-sulfonyl)-vinyl]-indol-1-yl}-acetic acid methyl ester]
105 | CC(=O)Nc1ccc(CCS(=O)(=O)N2CCC3(CC2)N=C(c2cccc(Cl)c2Cl)NC3=O)c(C)c1 [Compound 147, N-(4-{2-[2-(2,3-dichloro-phenyl)-4-oxo-1,3,8-triaza-spiro[4.5]dec-1-ene-8-sulfonyl]-ethyl}-3-methyl-phenyl)-acetamide]
74 | COCCN(C(C)=O)c1ccc(CCS(=O)(=O)N2CCC3(CC2)N=C(C2CCC(CCC(F)(F)F)CC2)NC3=O)c(C)c1 (stereo not shown) [Compound 755, N-(2-methoxy-ethyl)-N-[3-methyl-4-(2-{4-oxo-2-[4-(3,3,3-trifluoro-propyl)-cyclohexyl]-1,3,8-triaza-spiro[4.5]dec-1-ene-8-sulfonyl}-ethyl)-phenyl]-acetamide]
80 | Cc1cc(S(=O)(=O)NC(CO)(CO)CO)ccc1CCS(=O)(=O)N1CCC2(CC1)N=C(c1cccc(C(F)(F)F)c1)NC2=O [Compound 854, N-(2-hydroxy-1,1-bis-hydroxymethyl-ethyl)-3-methyl-4-{2-[4-oxo-2-(3-trifluoromethyl-phenyl)-1,3,8-triaza-spiro[4.5]dec-1-ene-8-sulfonyl]-ethyl}-benzenesulfonamide]
51 | Cc1cc(C(=O)N(C)C)ccc1CCS(=O)(=O)N1CCC2(CC1)N=C(/C=C/c1cccc(C(F)(F)F)c1)NC2=O [Compound 892, 3,N,N-trimethyl-4-(2-{4-oxo-2-[(E)-2-(3-trifluoromethyl-phenyl)-vinyl]-1,3,8-triaza-spiro[4.5]dec-1-ene-8-sulfonyl}-ethyl)-benzamide]
79 | Cc1cc(CN2CCCC2=O)cc(C)c1CCS(=O)(=O)N1CCC2(CC1)N=C(C1CCC(CCC(F)(F)F)CC1)NC2=O (stereo not shown) [Compound 776, 8-{2-[2,6-dimethyl-4-(2-oxo-pyrrolidin-1-ylmethyl)-phenyl]-ethanesulfonyl}-2-[4-(3,3,3-trifluoro-propyl)-cyclohexyl]-1,3,8-triaza-spiro[4.5]dec-1-en-4-one]
1.0 | Cc1cc(N(C)C(N)=O)cc(C)c1CCS(=O)(=O)N1CCC2(CC1)N=C(CCCCCCCCCN)NC2=O [Compound 1324, 1-(4-{2-[2-(9-Amino-nonyl)-4-oxo-1,3,8-triaza-spiro[4.5]dec-1-ene-8-sulfonyl]-ethyl}-3,5-dimethyl-phenyl)-1-methyl-urea]
